Results published in US12077555B2, “STAT degraders and uses thereof” (Kymera Therapeutics, Inc., priority 2019, dated 2024).

target: STAT3 (Homo sapiens, UniProt P40763); experiment: STAT3 HiBiT degradation assay in transfected A549 cells; format: cell-based; parameters: expressed in transfected cells; host or cells: A549; details: A549, 24 h; read-out: STAT3 HiBiT A549 degradation 24 h: Average external-Abs DC50
Method: Compound preparation and Cell seeding: The transfected A549 cells were harvested from dish into cell culture medium and cell numbers counted. Cells were diluted with culture medium to the desired density and 30 μL of cell suspension (about 2000 cells/well) were added into each well of a 384-well cell culture plate as designated and transferred into 37° C. 5% CO2 incubator for 24 h. Compounds were dissolved to 10 mM stock solution and 12 μL of the stock solution was transferred to a 384 LDV-plate. 3 fold, 10-point dilution was performed by transferring 4 μL compound into 8 μL DMSO using a TECAN (EVO200) liquid handler. 30 μL of diluted compound from compound source plate was transferred into the cell plate as designated by using Echo550 and transferred into 37° C. 5% CO2 incubator for 24 h.
Detection: Plates were removed from incubators and equilibrated at room temperature for 15 minutes. Nano-Glo Hibit Lytic Detection reagent (Promega Cat #N3040) was thawed and equilibrated to room temperature before the experiment. 30 μL of Nano-Glo Hibit Lytic Detection reagent was added into each well to be detected. The plates were held at room temperature for 10 min followed by reading on EnSpire.
Data analysis: The remaining activity was calculated following the formula: Remaining Activity (%)=100%×(Lumsample−LumNC)/(LumPC−LumNC). Calculate the IC50 by fitting the curve using Xlfit (v5.3.1.3), equation 201: fit=(A+((B−A)/(1+((x/C)^D)))); A: Bottom; B: Top; C: IC50; and D: Slope.
The letter codes for STAT3 DC50 include: A (<0.01 μM), B (0.01-0.1 μM), C (0.1-1.0 μM), and D (>1.0 μM).

Chain of STAT3 (P40763 whole entry): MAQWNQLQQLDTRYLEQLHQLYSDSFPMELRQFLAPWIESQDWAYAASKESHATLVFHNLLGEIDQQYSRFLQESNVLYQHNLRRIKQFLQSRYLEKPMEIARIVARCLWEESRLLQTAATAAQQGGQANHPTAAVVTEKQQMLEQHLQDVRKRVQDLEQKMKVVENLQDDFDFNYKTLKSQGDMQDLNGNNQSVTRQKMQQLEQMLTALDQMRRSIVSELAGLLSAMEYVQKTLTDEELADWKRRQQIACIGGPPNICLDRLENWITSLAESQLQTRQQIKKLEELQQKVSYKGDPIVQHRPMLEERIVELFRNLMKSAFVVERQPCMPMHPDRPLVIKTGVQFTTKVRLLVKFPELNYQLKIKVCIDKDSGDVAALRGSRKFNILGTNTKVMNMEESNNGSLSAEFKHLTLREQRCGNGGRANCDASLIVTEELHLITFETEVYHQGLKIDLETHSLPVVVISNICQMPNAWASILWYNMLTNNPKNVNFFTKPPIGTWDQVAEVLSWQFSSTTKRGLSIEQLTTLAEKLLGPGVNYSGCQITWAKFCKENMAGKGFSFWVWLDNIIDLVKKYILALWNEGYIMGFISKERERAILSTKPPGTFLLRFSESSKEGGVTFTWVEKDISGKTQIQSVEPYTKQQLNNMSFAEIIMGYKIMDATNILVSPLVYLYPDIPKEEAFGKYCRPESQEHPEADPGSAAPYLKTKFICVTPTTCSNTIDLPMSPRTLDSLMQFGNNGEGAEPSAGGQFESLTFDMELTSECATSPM

Compound | DC50
Cc1ncsc1-c1ccc(CNC(=O)[C@@H]2C[C@@H](O)CN2C(=O)[C@@H](NC(=O)Cc2cccc(-c3ccc(CO[C@H](C)[C@H](CCC(N)=O)NC(=O)[C@@H]4Cc5cccc6c5N4C(=O)[C@@H](NC(=O)c4cc5cc(C(=O)P(=O)(O)O)ccc5[nH]4)CC6)cc3)c2)C(C)(C)C)cc1 [Compound I-145, 2-[[(2S,11S)-2-[[(3S,4R)-1-carbamoyl-4-[[3'-([[(2S)-1-[(2S,4R)-4-hydroxy-2-([[4-(4-methyl-1,3-thiazol-5-yl)phenyl]methyl]carbamoyl)pyrrolidin-1-yl]-3,3-dimethyl-1-oxobutan-2-yl]carbamoyl]methyl)-[1,1'-biphenyl]-4-yl]methoxy]pentan-3-yl]carbamoyl]-12-oxo-1-azatricyclo[6.4.1.0^[4,13]]trideca-4(13),5,7-trien-11-yl]carbamoyl]-1H-indole-5-carbonylphosphonic acid] | > 1000 nM
Cc1ncsc1-c1ccc(CNC(=O)[C@@H]2C[C@@H](O)CN2C(=O)[C@@H](NC(=O)[C@H]2C[C@H](Cc3ccc(CO[C@H](C)[C@H](CCC(N)=O)NC(=O)[C@@H]4Cc5cccc6c5N4C(=O)[C@@H](NC(=O)c4cc5cc(C(=O)P(=O)(O)O)ccc5[nH]4)CC6)cc3)C2)C(C)(C)C)cc1 [Compound I-146, diammonium 2-[[(2S,11S)-2-[[(3S,4R)-1-carbamoyl-4-[(4-[[(1r,3r)-3-[[(2S)-1-[(2S,4R)-4-hydroxy-2-([[4-(4-methyl-1,3-thiazol-5-yl)phenyl]methyl]carbamoyl)pyrrolidin-1-yl]-3,3-dimethyl-1-oxobutan-2-yl]carbamoyl]cyclobutyl]methyl]phenyl)methoxy]pentan-3-yl]carbamoyl]-12-oxo-1-azatricyclo[6.4.1.0^[4,13]]trideca-4(13),5,7-trien-11-yl]carbamoyl]-1H-indole-5-carbonylphosphonate] | 100 to 1000 nM
Cc1ncsc1-c1ccc(CNC(=O)[C@@H]2C[C@@H](O)CN2C(=O)[C@@H](NC(=O)CCCCCCCC(=O)N2CC[C@H]3CC[C@@H](C(=O)N[C@@H](CCC(N)=O)C(=O)NC(c4ccccc4)c4ccccc4)N3C(=O)[C@@H](NC(=O)c3cc4cc(C(=O)P(=O)(O)O)ccc4[nH]3)C2)C(C)(C)C)cc1 [Compound I-147] | > 1000 nM
Cc1ncsc1-c1ccc([C@H](C)NC(=O)[C@@H]2C[C@H](O)CN2C(=O)[C@@H](NC(=O)CCCCc2ccc(CO[C@H](C)[C@H](CCC(N)=O)NC(=O)[C@@H]3Cc4cccc5c4N3C(=O)[C@@H](NC(=O)c3cc4cc(C(=O)P(=O)(O)O)ccc4[nH]3)CC5)cc2)C(C)(C)C)cc1 [Compound I-149, diammonium 2-[[(2S,11S)-2-[[(3S,4R)-1-carbamoyl-4-[[4-(4-[[(2S)-1-[(2S,4S)-4-hydroxy-2-[[(1S)-1-[4-(4-methyl-1,3-thiazol-5-yl)phenyl]ethyl]carbamoyl]pyrrolidin-1-yl]-3,3-dimethyl-1-oxobutan-2-yl]carbamoyl]butyl)phenyl]methoxy]pentan-3-yl]carbamoyl]-12-oxo-1-azatricyclo [6.4.1.0^[4,13]]trideca-4(13),5,7-trien-11-yl]carbamoyl]-1H-indole-5-carbonylphosphonate] | > 1000 nM
CN1C(=O)CCC(n2c(=O)n(C)c3cc(CCCCCCC(=O)N4CC[C@H]5CC[C@@H](C(=O)N[C@@H](CCC(N)=O)C(=O)NC(c6ccccc6)c6ccccc6)N5C(=O)[C@@H](NC(=O)c5cc6cc(C(=O)P(=O)(O)O)ccc6[nH]5)C4)ccc32)C1=O (stereo partly drawn) [Compound I-150, 2-[[(5S,8S,10aR)-8-[[(1S)-3-carbamoyl-1-(diphenylmethylcarbamoyl)propyl]carbamoyl]-3-[7-[3-methyl-1-(1-methyl-2,6-dioxopiperidin-3-yl)-2-oxo-1,3-benzodiazol-5-yl]heptanoyl]-6-oxo-octahydropyrrolo[1,2-a][1,5]diazocin-5-yl]carbamoyl]-1H-indole-5-carbonylphosphonic acid] | > 1000 nM
Cc1ncsc1-c1ccc(CNC(=O)[C@@H]2C[C@@H](O)CN2C(=O)[C@@H](NC(=O)NCCCc2ccc(CO[C@H](C)[C@H](CCC(N)=O)NC(=O)[C@@H]3Cc4cccc5c4N3C(=O)[C@@H](NC(=O)c3cc4cc(C(=O)P(=O)(O)O)ccc4[nH]3)CC5)cc2)C(C)(C)C)cc1 [Compound I-151, 2-[[(2S,11S)-2-[[(3S,4R)-1-carbamoyl-4-([4-[3-([[(2S)-1-[(2S,4R)-4-hydroxy-2-([[4-(4-methyl-1,3-thiazol-5-yl)phenyl]methyl]carbamoyl)pyrrolidin-1-yl]-3,3-dimethyl-1-oxobutan-2-yl]carbamoyl]amino)propyl]phenyl]methoxy)pentan-3-yl]carbamoyl]-12-oxo-1-azatricyclo[6.4.1.0^[4,13]]trideca-4(13),5,7-trien-11-yl]carbamoyl]-1H-indole-5-carbonylphosphonic acid] | 100 to 1000 nM
Cc1ncsc1-c1ccc(CNC(=O)[C@@H]2C[C@@H](O)CN2C(=O)[C@@H](NC(=O)CCCCCc2ccc(OC[C@H](CCC(N)=O)NC(=O)[C@@H]3Cc4cccc5c4N3C(=O)[C@@H](NC(=O)c3cc4cc(C(=O)P(=O)(O)O)ccc4[nH]3)CC5)cc2)C(C)(C)C)cc1 [Compound I-152, 2-[[(2S,11S)-2-[[(2S)-4-carbamoyl-1-[4-(5-[[(2S)-1-[(2S,4R)-4-hydroxy-2-([[4-(4-methyl-1,3-thiazol-5-yl)phenyl]methyl]carbamoyl)pyrrolidin-1-yl]-3,3-dimethyl-1-oxobutan-2-yl]carbamoyl]pentyl)phenoxy]butan-2-yl]carbamoyl]-12-oxo-1-azatricyclo [6.4.1.0^[4,13]]trideca-4(13),5,7-trien-11-yl]carbamoyl]-1H-indole-5-carbonylphosphonic acid] | > 1000 nM
Cc1ncsc1-c1ccc(CNC(=O)[C@@H]2C[C@@H](O)CN2C(=O)[C@@H](NC(=O)CCCCCCCCCOC[C@H](CCC(N)=O)NC(=O)[C@@H]2Cc3cccc4c3N2C(=O)[C@@H](NC(=O)c2cc3cc(C(=O)P(=O)(O)O)ccc3[nH]2)CC4)C(C)(C)C)cc1 [Compound I-153, 2-[[(2S,11S)-2-[[(2S)-4-carbamoyl-1-[(9-[[(2S)-1-[(2S,4R)-4-hydroxy-2-([[4-(4-methyl-1,3-thiazol-5-yl)phenyl]methyl]carbamoyl)pyrrolidin-1-yl]-3,3-dimethyl-1-oxobutan-2-yl]carbamoyl]nonyl)oxy]butan-2-yl]carbamoyl]-12-oxo-1-azatricyclo[6.4.1.0^[4,13]]trideca-4(13),5,7-trien-11-yl]carbamoyl]-1H-indole-5-carbonylphosphonic acid] | > 1000 nM
Cc1ncsc1-c1ccc(CNC(=O)[C@@H]2C[C@@H](O)CN2C(=O)[C@@H](NC(=O)CCCCCCCCOC[C@H](CCC(N)=O)NC(=O)[C@@H]2Cc3cccc4c3N2C(=O)[C@@H](NC(=O)c2cc3cc(C(=O)P(=O)(O)O)ccc3[nH]2)CC4)C(C)(C)C)cc1 [Compound I-154] | > 1000 nM
Cc1ncsc1-c1ccc(CNC(=O)[C@@H]2C[C@@H](O)CN2C(=O)[C@@H](NC(=O)CCCCCCCOC[C@H](CCC(N)=O)NC(=O)[C@@H]2Cc3cccc4c3N2C(=O)[C@@H](NC(=O)c2cc3cc(C(=O)P(=O)(O)O)ccc3[nH]2)CC4)C(C)(C)C)cc1 [Compound I-155] | > 1000 nM
